This is an account of results in patent US20050101595A1, “N-containing cycloalkyl-substituted amino-thiazole derivatives and pharmaceutical compositions for inhibiting cell proliferation and methods for their use” (PFIZER INC., priority 2003, published 2005).

Structures can show the parent of a compound that is named as a salt. Where two headings read alike, the source gives them in different places.

The IC50 is the concentration that inhibits the measured activity by half.

The target in test [1] is human CDK4 and genetically truncated (1-264) cyclin D3 (Homo sapiens, UniProt P11802). The test is described as follows: Inhibition of CDK4/Cyclin D Retinoblastoma Kinase Activity. The class given is biochemical. The method, boiled down: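 Human CDK4/truncated cyclin D3 (1-264) complex from baculovirus-infected insect cells, 5 nM, phosphorylating Rb fragment (residues 386-928, His-tagged) with 25 μM [32/33P]ATP in HEPES pH 7.4, MgCl2, 2% DMSO at 30° C. for 20 min (60 min for tight binders). Filter-captured radioactivity by phosphorimager; apparent Ki from competitive or tight-binding fits.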

A further test concerns HCT-116 cell line. Put plainly: Inhibition of cell growth, tetrazolium salt (MTT) assay. Format: cell-based. As to conditions: for HCT-116 % Inhibition at 0.25 μM: 0.25 μM compound; for IC50: Homo sapiens, HCT-116, 120 h, MTT, three to five days, read-out: HCT-116 IC50. In a few lines: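 HCT-116 cells in McCoy's 5A medium received compound 4 h after plating (0.5% v/v DMSO) and were incubated three to five days at 37° C, 5% CO2. MTT (0.2 mg/mL final) then added for 4 h; DMSO-solubilized formazan read at 540 nm against 0.5% DMSO-treated controls.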

For a further test, the target named is CDK2/Cyclin A (Homo sapiens, UniProt P24941). The test is described as follows: Inhibition of CDK2/Cyclin A Retinoblastoma Kinase Activity. The class given is biochemical. As to conditions: for CDK2 % Inhibition At 0.03 μM: Table 2. The method, boiled down: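 Baculovirus-expressed CDK2 complexed with proteolyzed cyclin A (10 or 19 nM), Rb fragment substrate, 25 μM [32P/33P]ATP, HEPES pH 7.4, 30 °C for 60 or 75 min under initial-rate conditions. Filter capture and phosphorimager readout; apparent Ki fitted to competitive or tight-binding competitive inhibition.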

[2] abbreviates: 0.1 μM compound, HCT-116, Table 4.

Chain of human CDK4 and genetically truncated (1-264) cyclin D3 (P11802 whole entry, the tested form may be a part): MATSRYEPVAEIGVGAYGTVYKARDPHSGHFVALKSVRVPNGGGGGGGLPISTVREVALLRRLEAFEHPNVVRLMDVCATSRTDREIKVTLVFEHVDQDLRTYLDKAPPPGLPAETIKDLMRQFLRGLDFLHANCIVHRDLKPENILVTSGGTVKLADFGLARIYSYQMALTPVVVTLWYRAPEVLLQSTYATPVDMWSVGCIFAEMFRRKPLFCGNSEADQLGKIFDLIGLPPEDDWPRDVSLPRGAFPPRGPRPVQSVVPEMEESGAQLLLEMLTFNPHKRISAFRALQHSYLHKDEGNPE
Chain of human CDK4 and genetically truncated (1-264) cyclin D3 (P30281 1-264 partner): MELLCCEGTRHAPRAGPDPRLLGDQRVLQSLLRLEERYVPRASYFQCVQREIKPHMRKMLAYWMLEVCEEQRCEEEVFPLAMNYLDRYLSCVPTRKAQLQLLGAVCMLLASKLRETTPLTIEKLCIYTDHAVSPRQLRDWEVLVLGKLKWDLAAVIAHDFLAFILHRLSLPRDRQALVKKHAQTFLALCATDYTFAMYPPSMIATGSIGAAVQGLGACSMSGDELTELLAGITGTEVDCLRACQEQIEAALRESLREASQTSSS

`Nc1nc(NC2CCN(C(=O)Nc3cccc(C(F)(F)F)c3)CC2)sc1C(=O)c1c(F)cccc1F` [Example O16]: in test [1] (0.03 μM compound, Table 2), the “CDK4 % Inhibition at 0.03 μM” value was 5%. Also, in the test with HCT-116 cell line (HCT-116, Table 2), the “HCT-116 % Inhibition at 0.25 μM” value turned out to be 6%. Besides, the “CDK2 % Inhibition At 0.03 μM” value at CDK2/Cyclin A (0.03 μM compound) is 34%.
As to `CCCC(CCC)C(=O)N1CCC(Nc2nc(N)c(C(=O)c3c(F)cccc3F)s2)CC1` [Example R166], in test [1] (at 0.03 μM), the “CDK4 % Inhibition at 0.03 μM” value is 37%. For the same compound, in the test with HCT-116 cell line (HCT-116 cells, at 0.1 μM), the “HCT-116 % Inhibition at 0.1 μM” value is listed as 0%. Further, the “HCT-116 5 Inhibition at 0.25 μM” value in the test with HCT-116 cell line (HCT-116 cells) came to 44. In addition, the “CDK2 % Inhibition at 0.03 μM” value at CDK2/Cyclin A (at 0.03 μM) came to 17%.
Turning to `Nc1nc(NC2CCN(S(=O)(=O)c3cccc(Br)c3)CC2)sc1C(=O)c1c(F)cccc1F` [Example P46], in test [1] (0.03 μM compound, Table 3), the “CDK4 % Inhibition at 0.03 μM” value came out at 68%. Also, in the test on HCT-116 cell line (0.1 μM compound, HCT-116, Table 3), the “HCT-116 % Inhibition at 0.1 μM” value worked out at 10%. In addition, the “HCT-116 % Inhibition at 0.25 μM” value with HCT-116 cell line (HCT-116, Table 3) came out at 20%. For the same compound, the “CDK2 % Inhibition at 0.03 μM” value on CDK2/Cyclin A (0.03 μM compound, Table 3) was 59%.
With `Nc1nc(NC2CCN(C(=O)Nc3ccc(C(F)(F)F)cc3)CC2)sc1C(=O)c1c(F)cccc1F` [Example O23], in test [1] (0.03 μM compound, Table 2), the “CDK4 % Inhibition at 0.03 μM” value is on record as 10%. Also, the “HCT-116 % Inhibition at 0.25 μM” value in the test on HCT-116 cell line (HCT-116, Table 2) stood at 24%. For the same compound, the “CDK2 % Inhibition At 0.03 μM” value on CDK2/Cyclin A (0.03 μM compound) was 36%.
On to `Nc1nc(NC2CCN(C(=O)CCCC3CCCCC3)CC2)sc1C(=O)c1c(F)cccc1F` [Example R102], for which the “CDK4 % Inhibition at 0.03 μM” value in test [1] (at 0.03 μM) is listed as 34%. Moreover, in the test with HCT-116 cell line (HCT-116 cells, at 0.1 μM), the “HCT-116 % Inhibition at 0.1 μM” value turned out to be 0%. The “HCT-116 5 Inhibition at 0.25 μM” value in the test with HCT-116 cell line (HCT-116 cells) was 43. Besides, the “CDK2 % Inhibition at 0.03 μM” value at CDK2/Cyclin A (at 0.03 μM) is on record as 18%.
As for `Nc1nc(NC2CCN(C(=O)Nc3ccc(Br)cc3)CC2)sc1C(=O)c1c(F)cccc1F` [Example O18], in test [1] (0.03 μM compound, Table 2), the “CDK4 % Inhibition at 0.03 μM” value worked out at 9%. Moreover, the “HCT-116 % Inhibition at 0.25 μM” value with HCT-116 cell line (HCT-116, Table 2) is recorded as 20%. At CDK2/Cyclin A (0.03 μM compound), the “CDK2 % Inhibition At 0.03 μM” value stood at 27%.
With `CC(Oc1ccccc1)C(=O)N1CCC(Nc2nc(N)c(C(=O)c3c(F)cccc3F)s2)CC1` (stereo not shown) [Example R159], the “CDK4 % Inhibition at 0.03 μM” value in test [1] (at 0.03 μM) is given as 36%. In addition, the “HCT-116 % Inhibition at 0.1 μM” value with HCT-116 cell line (HCT-116 cells, at 0.1 μM) was found to be 0%. For the same compound, the “HCT-116 5 Inhibition at 0.25 μM” value in the test with HCT-116 cell line (HCT-116 cells) is reported as 46. The “CDK2 % Inhibition at 0.03 μM” value on CDK2/Cyclin A (at 0.03 μM) came to 14%.
Take `COc1cccc(C(=O)N2CCC(Nc3nc(N)c(C(=O)c4c(F)cccc4F)s3)CC2)c1OC` [Example R115]: the “CDK4 % Inhibition at 0.03 μM” value in test [1] (at 0.03 μM) was 58%. Besides, the “HCT-116 % Inhibition at 0.1 μM” value in the test on HCT-116 cell line (HCT-116 cells, at 0.1 μM) is given as 0%. For the same compound, the “HCT-116 5 Inhibition at 0.25 μM” value with HCT-116 cell line (HCT-116 cells) came to 49. Moreover, the “CDK2 % Inhibition at 0.03 μM” value at CDK2/Cyclin A (at 0.03 μM) stood at 42%.
For the compound `Nc1nc(NC2CCN(S(=O)(=O)c3ccc(SCCc4ccccn4)nc3)CC2)sc1C(=O)c1c(F)cccc1F` [Example L3, 1-(4-Amino-2-{1-[6-(2-pyridin-2-yl-ethylsulfanyl)-pyridine-3-sulfonyl]-piperidin-4-ylamino}-thiazol-5-yl)-1-(2,6-difluoro-phenyl)-methanone Hydrochloride.], the Ki in test [1] (apparent Ki, CDK4/truncated cyclin D3, Rb fragment substrate, 25 μM ATP) turned out to be 1.2 nM; on CDK2/Cyclin A (apparent Ki, CDK2/proteolyzed cyclin A, Rb fragment substrate, 25 μM ATP), 0.68 nM. In addition, the IC50 was 350 nM in the test with HCT-116 cell line (first HCT-116 column (c4)) and over 500 nM in the test on HCT-116 cell line (second HCT-116 column (c5)).
Consider `Nc1nc(NC2CCN(C(=O)COCc3ccccc3)CC2)sc1C(=O)c1c(F)cccc1F` [Example Q75], for which the “CDK4 % Inhibition at 0.03 μM” value in test [1] (0.03 μM compound, Table 4) came to 20%. In addition, the “HCT-116 % Inhibition at 0.1 μM” value in the test on HCT-116 cell line (setting [2]) was 5%. For the same compound, the “HCT-116 % Inhibition at 0.25 μM” value in the test with HCT-116 cell line (HCT-116, Table 4) was determined as 39%. Moreover, the “CDK2 % Inhibition at 0.03 μM” value on CDK2/Cyclin A (0.03 μM compound, Table 4) is reported as 9%.
Take `Nc1nc(NC2CCN(C(=O)CNc3ccc(O)cc3)CC2)sc1C(=O)c1c(F)cccc1F` [Example R169]: in test [1] (at 0.03 μM), the “CDK4 % Inhibition at 0.03 μM” value is 40%. Also, in the test with HCT-116 cell line (HCT-116 cells, at 0.1 μM), the “HCT-116 % Inhibition at 0.1 μM” value worked out at 0%. The “HCT-116 5 Inhibition at 0.25 μM” value with HCT-116 cell line (HCT-116 cells) is recorded as 39. The “CDK2 % Inhibition at 0.03 μM” value on CDK2/Cyclin A (at 0.03 μM) is 22%.
Regarding `CC(C)(C)c1ccc(C(=O)N2CCC(Nc3nc(N)c(C(=O)c4c(F)cccc4F)s3)CC2)cc1` [Example Q34], in test [1] (0.03 μM compound, Table 4), the “CDK4 % Inhibition at 0.03 μM” value was 56%. Further, the “HCT-116 % Inhibition at 0.1 μM” value with HCT-116 cell line (setting [2]) stood at 1%. The “HCT-116 % Inhibition at 0.25 μM” value with HCT-116 cell line (HCT-116, Table 4) was found to be 27%. Also, the “CDK2 % Inhibition at 0.03 μM” value on CDK2/Cyclin A (0.03 μM compound, Table 4) is given as 28%.
On to `Nc1nc(NC2CCN(C(=O)[C@@H]3C[C@H]3c3ccccc3)CC2)sc1C(=O)c1c(F)cccc1F` (relative stereo) [Example R92], for which, in test [1] (at 0.03 μM), the “CDK4 % Inhibition at 0.03 μM” value is on record as −2%. The “HCT-116 % Inhibition at 0.1 μM” value in the test on HCT-116 cell line (HCT-116 cells, at 0.1 μM) was found to be 0%. Besides, in the test with HCT-116 cell line (HCT-116 cells), the “HCT-116 5 Inhibition at 0.25 μM” value was 40. Further, the “CDK2 % Inhibition at 0.03 μM” value on CDK2/Cyclin A (at 0.03 μM) is listed as −9%.
